As usually defined, the inhibition is the share of the control response that was lost under treatment. The IC50 is the concentration needed to halve the response being measured.

Some results are limits rather than exact numbers.

The record followed here is US9006257B2, “Bicyclic compounds as mPGES-1 inhibitors” (Glenmark Pharmaceuticals S.A., priority 2012, dated 2015).

The test has as its target T1, Recombinant human mPGES-1 (Homo sapiens, UniProt O14684).
T1 construct: made in house; host or cells: CHO cells
T1 sequence (O14684 1-152): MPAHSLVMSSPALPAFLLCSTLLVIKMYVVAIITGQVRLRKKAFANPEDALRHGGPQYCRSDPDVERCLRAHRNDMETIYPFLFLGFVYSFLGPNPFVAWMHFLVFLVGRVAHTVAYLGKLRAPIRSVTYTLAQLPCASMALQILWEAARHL
Nature of the test: In-vitro mPGES-1 inhibitor screening (inhibition of PGE2 formation from PGH2, HTRF detection). The format is biochemical. The following applies: for inhibition at 1 µM: 1 μM test compound, read-out: Percentage inhibition at 1 μM; for inhibition at 1 µM / inhibition at 10 µM: crude microsomal fraction, 15 μM PGH2; for inhibition at 10 µM: 10 μM test compound, read-out: Percentage inhibition at 10 μM; for IC50: class symbol, concentration response curve. The text has this:
In-Vitro Protocol for Screening of mPGES-1 Inhibitors:
mPGES-1 (microsomal prostaglandin E synthase-1) is a microsomal enzyme that converts endoperoxide substrate PGH2 (prostaglandin H2) to product PGE2 (prostaglandin E2) by isomerization in the presence of reduced glutathione (GSH). mPGES-1 inhibitors were screened by assessing their ability to inhibit formation of PGE2 from PGH2 in presence of mPGES-1 using an anti-PGE2 antibody based detection method. Recombinant human mPGES-1 was generated in-house by expression in CHO cells (Ouellet M et al. (2002), Protein Expression and Purification 26: 489-495). The assay was set up using crude microsomal fractions at protein concentration of 40-60 μg/mL. Test compounds were prepared in 100% dimethyl sulfoxide (DMSO) to obtain 20 mM stock solution and then diluted using assay buffer comprising 0.1 M Potassium phosphate buffer with 2 mM EDTA. The final concentration of DMSO in reaction was 0.5% (v/v). Negative controls were comprised of all assay reagents except the enzyme. Positive controls were comprised of the enzyme reaction in the absence of any inhibitor. Test compounds were incubated for 10 minutes in assay buffer containing 2.5 mM GSH and mPGES-1 enzyme followed by addition of PGH2 at a concentration of 15 μM for 1 minute. The reaction was stopped by addition of Stannous chloride (11 mg/ml) and PGE2 levels were measured (Masse F et al. (2005), Journal of Biomolecular Screening 10(6) 599-605., Goedken R E et al. (2008), Journal of Biomolecular Screening 13(7): 619-625) by HTRF kit (CisBio)).
Inhibition of mPGES-1 enzyme activity was measured using the percent of reaction occurring in the positive control. Concentration response curves were plotted using percent inhibition of maximum enzyme reaction. The IC50 value was calculated from the concentration response curve by nonlinear regression analysis using GraphPad PRISM software.
(In general: In TR-FRET formats the signal depends on donor and acceptor labels being close together.)

As for `O=C(Nc1cccc2c(Nc3cc(C(F)(F)F)ccc3F)ncnc12)c1c(F)cccc1Cl` [Example-34, 2-Chloro-6-fluoro-N-(4-((2-fluoro-5-(trifluoromethyl)phenyl)amino)quinazolin-8-yl)benzamide], the inhibition at 1 µM worked out at 75.4%, the inhibition at 10 µM turned out to be 84% and the IC50 was greater than 100 nM.

As for `CC(C)(C)C(=O)NCc1ccc(Cl)c(C(=O)Nc2cccc3c(Oc4cccc(C(F)(F)F)c4)ncnc23)n1` [Example-9, 3-Chloro-6-(pivalamidomethyl)-N-(4-(3-(trifluoromethyl)phenoxy)quinazolin-8-yl)picolinamide], the inhibition at 1 µM came to 99.1%, the inhibition at 10 µM turned out to be 100% and the 50% inhibitory concentration (IC50) is less than 50 nM.

As to `Cc1ccc(CNC(=O)C(C)(C)C)c(C)c1C(=O)Nc1cccc2c(NC(C)(C)C)ncnc12` [Example-68, N-(4-(tert-Butylamino)quinazolin-8-yl)-2,6-dimethyl-3-(pivalamidomethyl)benzamide], the inhibition at 1 µM came out at 99.8%, the inhibition at 10 µM was found to be 100% and the IC50 was less than 50 nM.

Regarding `CC(C)(C)C(=O)NCc1ccc(Cl)c(C(=O)Nc2cccc3c(Oc4cc(C(F)(F)F)ccc4F)ccnc23)c1F` [Example-40, 6-Chloro-2-fluoro-N-(4-(2-fluoro-5-(trifluoromethyl)phenoxy)quinolin-8-yl)-3-(pivalamidomethyl)benzamide], the inhibition at 1 µM came to 99.3%, the inhibition at 10 µM worked out at 98.5% and the 50% inhibitory concentration (IC50) was less than 50 nM.

Regarding `CC(C)C(=O)NCc1cnc(C(F)F)c(C(=O)Nc2cccc3c(NCC(F)(F)F)ncnc23)c1` [Example-78, 2-(Difluoromethyl)-5-(isobutyramidomethyl)-N-(4-((2,2,2-trifluoroethyl)amino)quinazolin-8-yl)nicotinamide], the inhibition at 1 µM worked out at 83.3%, the inhibition at 10 µM is 94.8% and the IC50 is less than 50 nM.

Turning to `CC(C)(C)C(=O)NCc1ccc(Cl)c(C(=O)Nc2cccc3c(Nc4cccc(C(F)(F)F)c4)nccc23)c1` [Example-4, 2-Chloro-5-(pivalamidomethyl)-N-(1-((3-(trifluoromethyl)phenyl)amino)isoquinolin-5-yl)benzamide], the inhibition at 1 µM turned out to be 98.6%, the inhibition at 10 µM came out at 99.8% and the IC50 was less than 50 nM.

With `CC(C)(C)Nc1ncnc2c(NC(=O)c3cc(CNC(=O)C(C)(C)C)c(F)cc3Cl)cccc12` [Example-71, N-(4-(tert-Butylamino)quinazolin-8-yl)-2-chloro-4-fluoro-5-(pivalamidomethyl)benzamide], the inhibition at 1 µM amounted to 100%, the inhibition at 10 µM was 97.3% and the IC50 is less than 50 nM.

`CC1(C)CCC(Oc2ncnc3c(NC(=O)c4cc(CNC(=O)C(C)(C)C)ccc4Cl)cccc23)CC1` [Example-15, 2-Chloro-N-(4-((4,4-dimethylcyclohexyl)oxy)quinazolin-8-yl)-5-(pivalamidomethyl)benzamide]: the inhibition at 1 µM worked out at 98.1%, the inhibition at 10 µM was found to be 97.5% and the IC50 is less than 50 nM.

As for `CC(C)(C)C(=O)NCc1ccc(Cl)c(C(=O)Nc2cccc3c(Oc4cccc(C(F)(F)F)c4)ccnc23)c1F` [Example-18, 6-Chloro-2-fluoro-3-(pivalamidomethyl)-N-(4-(3-(trifluoromethyl)phenoxy)quinolin-8-yl)benzamide], the inhibition at 1 µM is 100%, the inhibition at 10 µM was 99.9% and the IC50 is less than 50 nM.

As to `CC(C)(C)Nc1ncnc2c(NC(=O)c3c(Cl)ccc(CNC(=O)C(C)(C)CF)c3F)cccc12` [Example-79, N-(4-(tert-Butylamino)quinazolin-8-yl)-6-chloro-2-fluoro-3-((3-fluoro-2,2-dimethylpropanamido)methyl)benzamide], the inhibition at 1 µM came to 100%, the inhibition at 10 µM came out at 99.1% and the IC50 was less than 50 nM.

For `CC(C)Nc1ncnc2c(NC(=O)c3c(Cl)ccc(CNC(=O)C(C)(C)C)c3F)cccc12` [Example-64, 6-Chloro-2-fluoro-N-(4-(isopropylamino)quinazolin-8-yl)-3-(pivalamidomethyl)benzamide], the inhibition at 1 µM turned out to be 90.6%, the inhibition at 10 µM worked out at 94.5% and the IC50 is less than 50 nM.

For `CC(C)C(=O)NCc1cnc(C(F)F)c(C(=O)Nc2cccc3c(NC(C)(C)C)ncnc23)c1` [Example-75, N-(4-(tert-Butylamino)quinazolin-8-yl)-2-(difluoromethyl)-5-(isobutyramidomethyl)nicotinamide], the inhibition at 1 µM was 93.6%, the inhibition at 10 µM was found to be 98.3% and the IC50 was less than 50 nM.

For the compound `CC(C)(C)Nc1ncnc2c(NC(=O)c3ccc(F)c(CNC(=O)C(C)(C)C)c3Cl)cccc12` [Example-72, N-(4-(tert-Butylamino)quinazolin-8-yl)-2-chloro-4-fluoro-3-(pivalamidomethyl)benzamide], the inhibition at 1 µM turned out to be 86.8%, the inhibition at 10 µM was found to be 98.7% and the IC50 lay within 50 to 100 nM.

As to `CC(C)(C)C(=O)NCc1ccc(Cl)c(C(=O)Nc2cccc3c(N[C@H]4CC[C@H](C(F)(F)F)CC4)ncnc23)c1F` [Example-37, 6-Chloro-2-fluoro-3-(pivalamidomethyl)-N-(4-(((1r,4r)-4-(trifluoromethyl)cyclohexyl)amino)quinazolin-8-yl)benzamide], the inhibition at 1 µM amounted to 97.7%, the inhibition at 10 µM is 96.3% and the IC50 was less than 50 nM.

Turning to `CC(C)(C)C(=O)NCc1ccc(Cl)c(C(=O)Nc2cccc3c(Oc4cc(C(F)(F)F)ccc4F)nccc23)c1` [Example-41, 2-Chloro-N-(1-(2-fluoro-5-(trifluoromethyl)phenoxy)isoquinolin-5-yl)-5-(pivalamidomethyl)benzamide], the inhibition at 1 µM amounted to 99%, the inhibition at 10 µM worked out at 97.6% and the IC50 was less than 50 nM.

Take `CC(C)C(=O)NCc1ccc(Cl)c(C(=O)Nc2cccc3c(NCC(F)(F)F)ncnc23)c1F` [Example-73, 6-Chloro-2-fluoro-3-(isobutyramidomethyl)-N-(4-((2,2,2-trifluoroethyl)amino)quinazolin-8-yl)benzamide]: the inhibition at 1 µM turned out to be 88.7%, the inhibition at 10 µM worked out at 93.2% and the half-maximal inhibitory concentration (IC50) is less than 50 nM.

In the case of `CC(C)(C)C(=O)NCc1ccc(Cl)c(C(=O)Nc2cccc3c(Oc4cccc(C(F)(F)F)c4)nccc23)c1F` [Example-5, 6-Chloro-2-fluoro-3-(pivalamidomethyl)-N-(1-(3-(trifluoromethyl)phenoxy)isoquinolin-5-yl)benzamide], the inhibition at 1 µM amounted to 99.5%, the inhibition at 10 µM turned out to be 98.5% and the IC50 was less than 50 nM.

Consider `CC(C)(C)C(=O)NCc1ccc(Cl)c(C(=O)Nc2cccc3c(O[C@H]4CC[C@@H](C(F)(F)F)CC4)nccc23)c1` [Example-47, 2-Chloro-5-(pivalamidomethyl)-N-(1-(((1s,4s)-4-(trifluoromethyl)cyclohexyl)oxy)isoquinolin-5-yl)benzamide], for which the inhibition at 1 µM worked out at 85.1%, the inhibition at 10 µM is 97.7% and the IC50 is greater than 100 nM.
